Data as given in publication PMC3693772, “Protein expression, biochemical pharmacology of signal transduction, and relation to intraocular pressure modulation by bradykinin B2 receptors in ciliary muscle” (Molecular Vision, 2013).
“And” between values parts separate entries of the source, which are not always exact repeats. Equal values may be shown once. “Also recorded” adds a separate entry of the source.

Key:
primary h-CM cells = type: cell-based, human
Experimental: (§3) Measurement of prostaglandins in human ciliary muscle and Chinese hamster ovary cells expressing B2 receptors
(§4) This involved stimulating h-CM cells and CHO-B2 cells with various concentrations of test peptides and measuring the release of various PGs in the extracellular medium. The concentration-dependent effects of these peptides on total PGs, and specifically PGE2, PGF2α, and PGD2 release, were studied. Cells were grown as a monolayer in a 24-well plate (precoated with fibronectin) to confluence and subsequently serum-starved overnight before the experiment. On the day of the experiment, just before the drug was added, the wells were aspirated completely, and 990 µl basal medium and 10 µl 100× series of concentrations of the different peptide agonists were added to achieve the desired final concentrations of each compound (e.g., 0.1 nM to 10 µM). […] At the end of the incubation period, the cellular supernatants were collected and stored at −80 °C or used immediately to determine the PG content. Cell supernatants were tested for total PG levels and sub-species of PGs (PGE2, PGF2α, and PGD2) using specific competitive enzyme immunoassays (Cayman Chemical Co., Ann Arbor, MI) as directed in the manufacturer’s recommended protocols using the supplied standards and reagents. The limits of detection for various PGs were as follows: total PGs=29 pg/ml; PGE2=15 pg/ml; PGF2α=9 pg/ml; PGD2=200 pg/ml.

[1] = tested on: CHO-B2 cells (human cloned B2 receptor); type: cell-based, Chinese hamster ovary cells
Experimental: as §3, §4

h-CM cells [2] = experiment: PGD2 production in h-CM cells; type: cell-based, human; conditions: with or without BK; limit of detection PGD2=200 pg/ml
Experimental: as §4

CHO-B2 cells = type: cell-based, Chinese hamster ovary cells, human cloned B2 receptor; conditions: 1 h at 37 °C; enzyme immunoassay; mean ± SEM, 3 to 6 experiments; read-out: PGE2 production in CHO-B2 cells (EC50)
Experimental: as §4

h-CM cells [3] = experiment: Nitric oxide production in h-CM cells; type: cell-based, human; conditions: BK 0.1 and 1 µM; data not shown
From the text: Measurement of nitric oxide production
In certain cell types, BK elevates intracellular levels of nitric oxide (NO), which in turn causes the generation of cGMP via the soluble guanylate cyclase in the cell cytosol. In the present studies, we determined whether the B2 receptors in h-CM cells were coupled to NO production using a specific kit (Promega Corp., Madison, WI) and according to the manufacturer’s instructions.

[4] = tested on: ERK1/2 phosphorylation, CHO-B2 cells; experiment: ERK1/2 phosphorylation in CHO-B2 cells (HTRF); type: cell-based, Chinese hamster ovary cells, human cloned B2 receptor; conditions: high basal background
pro-MMP-2, h-CM cells = experiment: pro-MMP-2 release from h-CM cells; type: cell-based, human; conditions: BK 10 nM to 1 µM, 24 h at 37 °C; n=6
Experimental: (§1) Measurement of extracellular signal-regulated kinase-1/2 phosphorylation and pro-matrix metalloproteinase production
(§2) The release of pro-MMP-1/2/3 in the extracellular medium of h-CM cells exposed to kinin’s, for 24 h at 37 °C [29, 30] was studied next. Thus, h-CM cells isolated from multiple human donor eyes were cultured as described above and then serum-starved for 24 h prior to the addition of any test compound. Cells were incubated with the vehicle or test compound for 24 hours at 37 °C after which the medium was collected and concentrated ten-fold using Centricon concentrators (Millipore Corp., Bellireca, MA). Equal volumes of this concentrate were loaded on 10% SDS-polyacrylamide gels (SDS-PAGE) and the proteins separated and transferred to nitrocellulose membranes. The membranes were then blocked with 5% non-fat dry milk (Bio-Rad Laboratories, Hercules, CA) followed by incubation with antibodies to pro-MMP-1, pro-MMP-2, or pro-MMP-3 for 12 hours at 4 °C with gentle shaking. After washing, these membranes were incubated with appropriate secondary antibodies (HRP-conjugated; dilution 1:3000) for 1 hour at 20 °C. […] For chemiluminescent detection, the membranes were treated with enhanced chemiluminescent reagent (Amersham Pharmacia, Piscataway, NJ) and the signal was quantified using a Bio-Rad Versadoc imaging system (Bio-Rad Laboratories, Hercules, CA).

pro-MMPs, h-CM cells = experiment: pro-MMP release from h-CM cells (several pro-MMPs stated together); type: cell-based, human; conditions: BK 0.1–1 µM at 24 h
Experimental: as §1, §2

cynomolgus monkey eyes = experiment: IOP after topical ocular dosing in cynomolgus monkeys; type: in vivo; conditions: for IOP change (% of control) / IOP: 100 µg topical
Experimental: Intraocular pressure measurements
To extend our in vitro observations of the high density of B2-receptor protein in human and cynomolgus monkey ciliary muscle and non-pigmented ciliary epithelium, we studied the effects of topically administered BK (100 µg total dose in a sterile vehicle) on IOP in normotensive and TM-ablated hypertensive eyes of these animals. […] However, since we could not subject the monkeys to additional studies involving BK delivery to the eye interior, it was decided that intravitreal (ivt) injection of BK into pigmented Dutch-Belt rabbits would be worth pursuing. Thus, after light corneal anesthesia with 0.1% proparacaine, basal IOPs were determined in up to 10 Dutch-Belt rabbits using an Alcon Pneumotonometer (Alcon Laboratories Inc., Fort Worth, TX). After this time, 50 µg of BK (B2 agonist) or Des-Arg^9-BK (B1 agonist) in 20 µl of sterile basal salt solution (BSS plus), or just BSS plus vehicle, was injected ivt into one eye of each rabbit and the IOP determined at various times thereafter. Authors confirm adherence to the ARVO Statement for Animals in Ophthalmic and Vision Research, with all animal studies conducted according the guidelines for Animal Care and Use at Alcon Research Ltd.

human TM cells = conditions: ref [33]; cited from earlier work
[5] = normal pressure eyes, 1 h, mean ± SEM, twelve monkeys
[6] = normal pressure eyes, 3 h, mean ± SEM, twelve monkeys
[7] = normal pressure eyes, 6 h, mean ± SEM, twelve monkeys
[8] = normal pressure eyes, 24 h, mean ± SEM, twelve monkeys
[9] = ocular hypertensive eyes, 1 h, mean ± SEM, twelve monkeys
[10] = ocular hypertensive eyes, 3 h, mean ± SEM, twelve monkeys
[11] = ocular hypertensive eyes, 6 h, mean ± SEM, twelve monkeys
[12] = ocular hypertensive eyes, 24 h, mean ± SEM, twelve monkeys

## H-RPPGFSPFR-OH [BK]
Primary h-CM cells; 1 h at 37 °C, enzyme immunoassay, mean ± SEM, 3 to 6 experiments, read-out: Total PGs production in h-CM cells (EC50)
  EC50: 8600 ± 2400 pM
Primary h-CM cells; BK 100 nM (0.1 µM) to 10 µM, n=8
  BK-induced total PGs production/secretion, h-CM cells: 393.3 ± 24.2 pg/mL and 393.3 pg/mL
Primary h-CM cells; BK 1 µM, Figure 6A, single experiment
  Total PG secretion above basal levels: substantially increased the PGs secreted above the basal levels
[1]; 1 h at 37 °C, enzyme immunoassay, mean ± SEM, 3 to 6 experiments, read-out: Total PGs production in CHO-B2 cells (EC50)
  EC50: 26.3 ± 6.6 pM
[1]; n=6
  BK-induced total PGs production/secretion, CHO-B2 cells: 913.6 ± 47.6 pg/mL and 913.6 pg/mL
[1]; relative to basal levels
  Elevation in extracellular PGs, CHO-B2 cells: 4.9 fold
h-CM cells [2]
  PGD2 release in h-CM cells: no PGD2 was detected
CHO-B2 cells
  EC50: 32.8 ± 9.03 pM
h-CM cells [3]
  Effect on NO levels: failed to have any effect on NO levels; also recorded: failed to do so in h-CM cells
[4]
  ERK1/2 phosphorylation response in CHO-B2 cells: did not obtain a meaningful response
pro-MMP-2, h-CM cells
  pro-MMP-2 release vs basal level: 1.67±0.25 fold
pro-MMPs, h-CM cells
  Increase in promatrix metalloproteinases-1–3 release: 1.4–3.1 fold
Cynomolgus monkey eyes; 100 µg topical ocular, conscious cynomolgus monkeys, normotensive and hypertensive eyes
  IOP effect of topical BK: failed to alter IOP; also recorded: no remarkable changes in IOP; also recorded: no alteration in IOP; also recorded: failed to modulate IOP
Cynomolgus monkey eyes; normal pressure eyes, 0 h (baseline)
  IOP change (% of control): 0%
Cynomolgus monkey eyes; normal pressure eyes, 0 h (baseline), mean ± SEM, twelve monkeys
  IOP: 27.1±1.0 mmHg
Cynomolgus monkey eyes; [5]
  IOP: 27.1±1.1 mmHg
  IOP change (% of control): 0.2±2.5%
Cynomolgus monkey eyes; [6]
  IOP: 26.6±0.7 mmHg
  IOP change (% of control): −1.0±2.9%
Cynomolgus monkey eyes; [7]
  IOP: 27.2±1.1 mmHg
  IOP change (% of control): 0.8±2.3%
Cynomolgus monkey eyes; [8]
  IOP: 27.8±1.4 mmHg
  IOP change (% of control): 2.4±3.3%
Cynomolgus monkey eyes; ocular hypertensive eyes, 0 h (baseline)
  IOP change (% of control): 0%
Cynomolgus monkey eyes; ocular hypertensive eyes, 0 h (baseline), mean ± SEM, twelve monkeys
  IOP: 36.8±1.6 mmHg
Cynomolgus monkey eyes; [9]
  IOP: 35.9±1.8 mmHg
  IOP change (% of control): −2.6±1.5%
Cynomolgus monkey eyes; [10]
  IOP: 35.7±1.6 mmHg
  IOP change (% of control): −2.7±3.3%
Cynomolgus monkey eyes; [11]
  IOP: 36.6±1.7 mmHg
  IOP change (% of control): −0.4±3.0%
Cynomolgus monkey eyes; [12]
  IOP: 35.3±1.6 mmHg
  IOP change (% of control): −4.1±2.3%
Human TM cells
  Production of PGs in human TM cells: produced various PGs
